Laboratory results: patent US6057119A, “Crystal structure and mutants of interleukin-1β converting enzyme” (Vertex Pharmaceuticals, Incorporated, priority 1995, dated 2000)

Target: T1, human interleukin-1β converting enzyme (ICE), wild type, autoprocessed p20/p10 from p30 precursor (residues Asn 120 to His 404 of p45), SEQ ID No: 1 (Homo sapiens, UniProt P29466)
T1 construct: the concomitant appearance of the p20 and p10 subunits, was monitored by SDS-PAGE, evidence that autocatalytic processing of the enzyme had occurred; made in house
T1 sequence (P29466 120-297): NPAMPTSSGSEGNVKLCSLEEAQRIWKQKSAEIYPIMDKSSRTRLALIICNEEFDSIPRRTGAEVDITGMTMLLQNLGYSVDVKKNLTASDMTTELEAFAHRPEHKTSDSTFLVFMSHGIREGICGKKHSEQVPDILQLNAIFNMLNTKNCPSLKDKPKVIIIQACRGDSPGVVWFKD
T1 sequence (P29466 317-404): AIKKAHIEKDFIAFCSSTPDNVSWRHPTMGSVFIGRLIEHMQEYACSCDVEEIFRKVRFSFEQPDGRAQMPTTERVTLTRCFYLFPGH
Assay: Inhibition of autoprocessed ICE by tetrapeptide aldehyde inhibitor (activity assayed by hydrolysis of Succinyl-Tyr-Val-Ala-Asp-p-nitroanilide)
Type: biochemical
Settings: 2× molar excess of inhibitor over enzyme
Description: The protein was concentrated to 3-5 mg/ml by ultrafiltration at 4° C., followed by incubation at room temperature. The disappearance of the p30 precursor, and the concomitant appearance of the p20 and p10 subunits, was monitored by SDS-PAGE, evidence that autocatalytic processing of the enzyme had occurred. ICE enzymatic activity was assayed by hydrolysis of a Succinyl-Tyr-Val-Ala-Asp-p-nitroanilide substrate at 37° C. and correlated closely with conversion to subunits.
The protein-inhibitor complex sample was concentrated and fractionated by size-exclusion chromatography, in final preparation for crystallization experiments.

CC(=O)N[C@@H](Cc1ccc(O)cc1)C(=O)N[C@H](C(=O)N[C@@H](C)C(=O)N[C@H](C=O)CC(=O)O)C(C)C [acetyl-Tyr-Vol-Ala-Asp-H]
inhibition of autoprocessed ICE: inhibited fully
